These results are taken from patent US6352996B1, “Liposomal prodrugs comprising derivatives of camptothecin and methods of treating cancer using these prodrugs” (priority 1999, dated 2002).

Read-outs that look alike come from different tables or passages of the source.

In one series the test system is U-937 cells. The series can be described thus: Growth inhibition of U-937 cells treated with CPT esters. Type of series: cell-based. The settings on record: 0.2 μM, 120 hr, percent of exponential growth of untreated cells (100%), mean of four estimates. Here is the method: Growth inhibition of U-937 cells treated with various CPT esters.
Each identified compound was added to reach a culture of U-937 cell having a final concentration of 0.2 μM. The treatment time was for 120 hr. Growth inhibition in each of the treated cultures was then estimated as a percent of the exponential growth of the cells that was considered 100%. Each estimate was the mean value of four estimates.

Another series concerns CLO breast carcinoma. The series can be described thus: Human breast carcinoma CLO xenograft in nude mice. Type of series: in vivo. Particulars: 8 mg/kg intramuscular twice a week, day 55 (FIG. 16). From the text: Swiss nude mice of the NIH high fertility strain were bred and maintained pathogen-free in a laboratory. (Giovanella, B. C. and Stehlin, J. S. “Heterotransplantation of human malignant tumors in ‘nude’ thymusless mice. I. Breeding and maintenance of ‘nude’ mice.” J. Natl. Cancer Inst. 51: 615-619; 1973.)
Human malignant carcinomas of the colon, breast, lung, ovary, stomach, pancreas, bladder, prostate, osteosarcoma and malignant melanomas were heterotransplanted directly from patients into the nude mice and passaged serially. In particular, the tumors CLO, MUR, CAS, SW 48, SQU and BRO as described in Giovanella, B. C., Stehlin, J. S., Shepard, R. C. and Williams, L. J. “Correlation between response to chemotherapy of human tumors in patients and in nude mice.” Cancer 52: 1146-1152; 1983, tumor SCH as described in Heim, S., Mandahl, N., Arheden, K., Giovanella, B. C., Yim, S. O., Stehlin, J. S., Jr. and Mitebman, F. “Multiple karyotypic abnormalities including structural rearrangements of 11P in cell lines from malignant melanomas.” Cancer Genet. Cytogent, 35:5-20; 1988, and Verschraegen, C., Ciovanella, B. C., Mendoza, J. T., Kozielski, A. J. and Stehlin, J. S., Jr. “Specific organ metastases of human melanoma cells injected into the arterial circulation of nude mice.” Anticancer Res., In Press, and tumor PC-3 as described in Invest. Urol. 17, 16-23, 1979, were used. […]
A general note: A xenograft is tissue or cells of one species grown in another, often human tumour cells in immunodeficient mice.

Series [1] deals with human tumor xenografts.
A short description of series [2]: Closed lactone form in plasma of mice after intrastomach administration. Particulars: after i.s. administration, mouse (FIG. 3). Type of series: in vivo.
A short description of series [3]: Closed lactone form in human plasma after oral administration. Particulars: for % present as closed lactone form in human blood/plasma: after oral administration (FIGS. 2, 4, 5, 7, 8).
For another series, the system named is human malignancies. The series can be described thus: Clinical responses in Phase I clinical trial patients. It counts as in vivo. Particulars: in humans.
Series [4] concerns human tumor xenografts. The settings on record: in mice; cited from earlier work.
For series [5] the following is noted: mouse liver homogenate, 2 μg SF6A/ml, 37° C.
Method: Determination of SF6A (Prodrug 2) and CPT in liver homogenate.
Mouse liver was homogenized in 4 volumes of ice-cold 0.15 M KCl with the aid of a Dounce homogenizer, then centrifuged at 15000 G for 10 min to remove particulate material. The supernatant, designated as liver homogenate, was transferred into a capped polypropylene tube, mixed with 2 μg SF6A/ml and incubated in a 37° C. water-bath. At the desired times, samples were removed and mixed with 4 volumes of ice-cold ethanol to precipitate proteins. The samples were stored at −20° C. until all were collected. Following centrifugation at 15000 G for 10 min, the clarified supernatants were subjected to analysis for determination of SF6A and CPT lactones by high pressure liquid chromatography (HPLC). The compounds were detected by fluorescence spectroscopy setting the excitation and emission wavelengths at 347 nm and 418 nm, respectively. CPT and SF6A have characteristic retention times of 3.5 min and 13.5 min, respectively.
Series [6] in a line: Stability of lactone form in human plasma. It counts as in vitro ADME. Particulars: for Percent in plasma (lactone, percent of the initial lactone amount added): 1 μg/ml. As to the method: CPT or SF6A lactone was added to human plasma (1 μg/ml) and an incubation and lactone determination were made as described in Example 15. The lactone amount at each time-point was detected after removing the carboxylate form, and subsequently was calculated as percent of the initial lactone amount added. The results shown in this Table below were derived from one of the three independent experiments performed using different incubation times. The pattern of quantitation of the lactones was similar in all three experiments.

A short description of series [7]: Changes of body weights of mice during the test time period (toxicity). Particulars: nude mice. It counts as in vivo. From the text:
The preferred derivatives display significant antitumor activity with much lower toxicity than their parent camptothecin, CPT. The animal experimental data for these new derivatives were collected. Camptothecin 20(S) propioniate (where R1 is ethyl and R2 is H) is designated as Prodrug 2 and taken as a example to disclose some in vivo experimental data. FIG. 6 represents the antitumor activity of this compound in different doses against the implanted human breast carcinoma (CLO) in nude mice. The change of body weight of mice is recorded with the time.

With `CC[C@@]1(OC(C)=O)C(=O)OCc2c1cc1n(c2=O)Cc2cc3ccccc3nc2-1` [CPT-acetate], the Growth % in the series on U-937 cells is listed as 92 ± 4%.

In the case of `CC=CC(=O)OC1(CC)C(=O)OCc2c1cc1n(c2=O)Cc2cc3ccccc3nc2-1` (stereo not drawn) [Compound IB, Camptothecin 20-O crotonate], the tumor size entry with CLO breast carcinoma was “actually reducing the tumor size”.

With `CCC1(OC(=O)C2OC2C)C(=O)OCc2c1cc1n(c2=O)Cc2cc3ccccc3nc2-1` (stereo not drawn) [Compound IC, Camptothecin 20-O-2′, 3′-epoxy-butyrate], the tumor size result in the series on CLO breast carcinoma is given as “stabilize the tumor size after a certain amount of time”.

As to `CC[C@@]1(O)C(=O)OCc2c1cc1n(c2=O)Cc2cc3c([N+](=O)[O-])cccc3nc2-1` [Example 9NC, 9-nitrocamptothecin, reference compound], the complete tumor regressions with human tumor xenografts [1] (in mice) is 32/32; in the series on human malignancies, 2/32. Also, the “drug present in the plasma in the closed lactone form” value in series [2] worked out at 57%. The “% present as closed lactone form in human blood/plasma” value in series [3] is listed as around 3%. For the same molecule, the “drug present in plasma in the closed lactone form” value in series [3] (oral administration to Phase I clinical trial patients, on average (FIGS. 4 and 5)) was around 3%. In the series with human tumor xenografts [4], the “potency relative to CPT against human tumor xenografts” value is 2-3 times.

Consider `CCC(=O)O[C@]1(CC)C(=O)OCc2c1cc1n(c2=O)Cc2cc3ccccc3nc2-1` [Prodrug 2, Camptothecin 20-O-propionate], for which, in the series with human tumor xenografts [1] (mice), the toxicity result is “exceptional lack of toxicity, even at enormous doses in mice”. In addition, in the series on human tumor xenografts [1] (nude mice), the “antitumor activity against xenografts of human tumors” value is given as “exhibits antitumor activity against human tumor xenografts”. Further, in the series on U-937 cells, the Growth % is 31 ± 2%. In addition, the “Amount determined: CPT (formed from SF6A)” value in [5] (incubation 0 min) came to 0.00 µg/mL; in series [5] (incubation 10 min), 0.00 µg/mL; in series [5] (incubation 60 min) it was 0.00 µg/mL; in series [5] (incubation 6 hr), 0.00 µg/mL; in [5] (incubation 24 hr), 0.47 µg/mL; in [5] (incubation 48 hr), 0.30 µg/mL. Further, the “Amount determined: SF6A” value came out at 1.95 µg/mL in series [5] (incubation 0 min); 2.06 µg/mL in series [5] (incubation 10 min); 2.05 µg/mL in [5] (incubation 60 min); 2.05 µg/mL in [5] (incubation 6 hr); 0.96 µg/mL in series [5] (incubation 24 hr); 0.90 µg/mL in series [5] (incubation 48 hr). Moreover, in [3], the “% present as closed lactone form in human blood/plasma” value turned out to be 2.8%. Moreover, the “increase of lactone share over the parent compound” value in [3] (human, oral administration, versus CPT or 9NC) is “sevenfold”. The “Lactone % in Human Plasma” value in series [6] (Time 0 Hr) is listed as 100%; in series [6] (Time 1 Hr) it was 86%; in series [6] (Time 2 Hr) it was 77%; in series [6] (Time 4 Hr) it was 68%; in series [6] (Time 6 Hr), 56%. Besides, in series [6] (human plasma), the “time the lactone ring remained intact, versus CPT” value is given as “much longer”. For the same molecule, the “Percent in plasma (lactone, percent of the initial lactone amount added)” value in [6] (human plasma, incubation time 0.0 hr) is 100.0%; in series [6] (human plasma, incubation time 1.0 hr), 86.0%; in series [6] (human plasma, incubation time 2.0 hr), 77.0%; in series [6] (human plasma, incubation time 4.0 hr), 68.0%; in series [6] (human plasma, incubation time 6.0 hr), 56.0%; in series [6] (human plasma, incubation time 27.0 hr), 9.0%. The Body weight in [7] (dose 5 mg/kg, day 21) is listed as 21/33 gms; in [7] (dose 5 mg/kg, day 27) it was 27/33.7 gms; in series [7] (dose 5 mg/kg, day 34), 34/34.3 gms; in series [7] (dose 5 mg/kg, day 41) it was 41/33.5 gms; in [7] (dose 5 mg/kg, day 48) it was 48/32.9 gms; in series [7] (dose 5 mg/kg, day 56), 56/33.2 gms. Besides, the Body weight is recorded as 21/32.9 gms in series [7] (dose 6 mg/kg, day 21); 27/33.4 gms in series [7] (dose 6 mg/kg, day 27); 34/33.8 gms in series [7] (dose 6 mg/kg, day 34); 41/33.5 gms in series [7] (dose 6 mg/kg, day 41); 48/34.0 gms in [7] (dose 6 mg/kg, day 48); 56/32.2 gms in [7] (dose 6 mg/kg, day 56). Besides, the Body weight in series [7] (dose 7 mg/kg, day 21) is listed as 21/30.8 gms; in series [7] (dose 7 mg/kg, day 27), 27/31.7 gms; in series [7] (dose 7 mg/kg, day 34), 34/30.6 gms; in series [7] (dose 7 mg/kg, day 41), 41/31.1 gms; in series [7] (dose 7 mg/kg, day 48) it was 48/31.6 gms; in series [7] (dose 7 mg/kg, day 56) it was 56/31.5 gms. The Body weight is given as 21/32.9 gms in [7] (dose 8 mg/kg, day 21); 27/34.1 gms in [7] (dose 8 mg/kg, day 27); 34/34.0 gms in series [7] (dose 8 mg/kg, day 34); 41/33.4 gms in series [7] (dose 8 mg/kg, day 41); 48/33.9 gms in [7] (dose 8 mg/kg, day 48); 56/33.2 gms in series [7] (dose 8 mg/kg, day 56). For the same molecule, the “change of body weight of mice during the test time period” value in series [7] (doses 5-8 mg/kg) is listed as “no losses of mice body weights”.
